Assay results as given in article PMC9916778 (International Journal of Molecular Sciences, 2023).
Where two headings read alike, the source gives them in different places.

What was measured:
caspases 3/7 = test: Caspase 3/7 activation (flow cytometry); assay type: cell-based, human; conditions: A2780, half-cytotoxic concentration, 24 h
Experimental: (§1) The induction of cell death by complex (1) was studied by two methods in the A2780 cell line. Firstly, the induction of apoptosis was tested using an Annexin V-FITC/PI commercial kit (V13242, Thermo Fisher Scientific, USA). Second, caspase 3/7 activation was monitored using the CellEvent™ Caspase-3/7 Green Flow Cytometry Assay Kit (C10427, Thermo Fisher Scientific, USA). Both assays were performed according to the manufacturers’ protocols with one modification in the caspase induction assay: the use of CellEvent^TM Caspase-3/7 Green Detection Reagent was only for the detection of caspase 3/7 activation. The general procedure was as follows: 5 × 10^4 cells per well were seeded in a 24-well cell culture plate, and after 24 h, the cells were treated with 4 µM solution of complex (1) and cultivated for next 24 h. […] The trypsin was blocked by adding the cell culture medium to a final volume of 500 µL, and the resulting cell suspensions were divided into two separate 250 µL aliquots. The first set of aliquots was used to evaluate the Annexin V-FITC/PI assay, whilst the second one was used for the caspase 3/7 activation assay. Both assays were performed using a BD FACSVerse flow cytometer (Becton Dickinson, USA) in three independent experiments, each performed in duplicate.

A2780 cells [1] = test: Induction of autophagy (CYTO-ID kit); assay type: cell-based, human; conditions: A2780, half-cytotoxic concentration, 24 h
Experimental: The induction of autophagy by complex (1) was studied using a CYTO-ID® Autophagy Detection Kit 2.0 (ENZO, New York, NY, USA) according to the manufacturer’s protocol. Briefly, the A2780 cells were seeded in a 24-well cell culture plate at 5 × 10^4 cells per well and cultivated for 24 h. The next day, the cells were treated with complex (1) at 4 µM. […] Then, the cells were stained with CYTO-ID® Green stain solution and incubated for 30 min in the dark. After the final wash with PBS, the cell suspensions were analyzed using the BD FACSVerse flow cytometer (Becton Dickinson, USA) in three separate experiments, while at least 10^4 events were recorded for each sample prepared in duplicates. The cells incubated with the mixture of chloroquine (10 µM) and rapamycin (0.5 µM) for 18 h were used as a positive control.

A2780 cells [2] = test: Mitochondrial membrane potential analysis (MITO-ID); assay type: cell-based, human; conditions: A2780, half-cytotoxic concentration, 24 h
Experimental: The A2780 cells were seeded in 24-well cell culture plates at 5 × 10^4 cells/well and cultivated for 24 h. The next day, the complex (1) was added to a final concentration of 4 µM, and the cells were incubated for another 24 h. […] The cells were then isolated by centrifugation and resuspended in a staining solution prepared according to the manufacturer’s protocol from a MITO-ID® Membrane Potential Detection kit (Enzo Life Sciences, USA). Finally, the cells were analyzed using a BD FACSVerse flow cytometer (Becton Dickinson, USA). The control was carried out by treatment with 2 µM carbonyl cyanide 3-chlorophenylhydrazone (CCCP). Three independent experiments were conducted, each in duplicate.

[3] = test system: MRC5 human fetal fibroblasts; test: In vitro cytotoxicity (MTT assay), normal MRC-5 fibroblasts; assay type: cell-based; conditions: ± standard deviation, triplicate, read-out: IC50, MRC5 (healthy cells)
Experimental: (§2) The testing was performed on the ovarian carcinoma (A2780), Cisplatin-resistant ovarian carcinoma (A2780R), prostate adenocarcinoma (PC-3), prostate carcinoma (22Rv1), and leukemia monocytic (THP-1) and intestinal colon adenocarcinoma (LS180) human cell lines that were obtained from the ATCC collection of cell lines and cultivated according to the producer’s instructions. The reference normal cell line of human fetal fibroblasts (MRC-5) was obtained from the same commercial source and maintained according to the producer’s instructions. The half-maximal inhibitory concentrations (IC50) were calculated from dose–response curves by means of the GraphPad Prism 6 software (GraphPad Software, San Diego, CA, USA).

THP1-Blue™ NF-κB cells = test: Cell viability, CCK-8, serum-free medium; assay type: cell-based, human
Experimental: The cells were cultivated in RPMI (Roswell Park Memorial Institute) 1640 medium (Biosera; Nuaille, France) supplemented with 10% fetal bovine serum (FBS) and antibiotics (100 U/mL penicillin and […] streptomycin) (both from Merck). All further experiments were performed in serum-free medium. The effect of the test compounds dissolved in DMF on cell viability after 24 h incubation was determined using a Cell Counting Kit-8 (CCK-8; Merck) according to the manufacturer’s instructions, similarly as previously described.

[4] = test system: PC-3 prostate adenocarcinoma cells; test: In vitro cytotoxicity (MTT assay), PC-3; assay type: cell-based, human; conditions: ± standard deviation, triplicate
Experimental: as §2

NF-κB = NF-κB activity in LPS-challenged cells (SEAP reporter); assay type: cell-based, human; conditions: 100 nM, 1 h pre-treatment, LPS 24 h, THP1-Blue NF-κB monocytes
Experimental: The effect of the tested compounds to influence the function of transcription factor NF-κB was determined on lipopolysaccharide (LPS)-challenged THP1-Blue™ NF-κB cells as we described previously. […] After 24 h incubation, the activity of NF-κB was determined as the amount of secreted embryonic alkaline phosphatase using Quanti-Blue™ medium (Invivogen).

A2780 cells [5] = test: Induction of apoptosis, Annexin V-FITC/PI staining; assay type: cell-based, human; conditions: A2780, half-cytotoxic concentration, 24 h
Experimental: as §1

[6] = test system: A2780 ovarian carcinoma cells; test: In vitro cytotoxicity (MTT assay), A2780; assay type: cell-based, human
Experimental: The reference normal cell line of human fetal fibroblasts (MRC-5) was obtained from the same commercial source and maintained according to the producer’s instructions. The half-maximal inhibitory concentrations (IC50) were calculated from dose–response curves by means of the GraphPad Prism 6 software (GraphPad Software, San Diego, CA, USA).

[7] = test system: A2780R Cisplatin-resistant ovarian carcinoma cells; test: In vitro cytotoxicity (MTT assay), A2780R; assay type: cell-based, human; conditions: ± standard deviation, triplicate
Experimental: as §2

[8] = MTT, 24 h incubation, ± standard deviation, triplicate, read-out: IC50, A2780

| SMILES | Cells with active executioner caspases 3/7 (caspases 3/7) | Induction of autophagy (A2780 cells [1]) | Damage to mitochondrial membranes (A2780 cells [2]) | IC50 [3] | IC50 (THP1-Blue™ NF-κB cells) | IC50 [4] | Effect on LPS-stimulated NF-κB activity (NF-κB) | Cells in early stage apoptosis (Annexin V+/PI-) (A2780 cells [5]) | Cells in late stage apoptosis (Annexin V+/PI+) (A2780 cells [5]) | IC50 [6, 8] | IC50 ([6]; read-out: IC50, A2780, after 48 h and 72 h incubation, 48 h and 72 h incubation, insignificant changes) | IC50 [7] | Activation of caspases 3/7 (caspases 3/7) | Cells with loss of mitochondrial membrane potential (A2780 cells [2]) | IC50 (THP1-Blue™ NF-κB cells; THP1-Blue NF-κB cells, serum-free medium, 24 h treatment, CCK-8, read-out: IC50 ± SEM, cytotoxic effect) | IC50 ([6]; 24 h incubation, read-out: Time-dependent in vitro cytotoxicity (IC50), A2780, 24 h) | IC50 ([6]; 72 h incubation, read-out: Time-dependent in vitro cytotoxicity (IC50), A2780, 72 h) | IC50 ([6]; read-out: Time-dependent in vitro cytotoxicity (IC50), A2780, 48 h, 48 h incubation) |
| --- | --- | --- | --- | --- | --- | --- | --- | --- | --- | --- | --- | --- | --- | --- | --- | --- | --- | --- |
| [Cl][Au].c1ccc(P(c2ccccc2)c2ccccc2)cc1 [[Au(PPh3)Cl]] | around 50% | significantly induced the autophagy | Significant changes in mitochondrial membrane permeability | 17 ± 0.5 µM | 1.1 ± 1.1 µM | 9.9 ± 0.4 µM | possessed some activity | around 10% | around 30% | 3.5 ± 0.5 µM | ~3 µM | 5.2 ± 0.2 µM |  |  |  |  |  |  |
| CC[PH](CC)(CC)[Au][S][C@@H]1O[C@H](COC(C)=O)[C@@H](OC(C)=O)[C@H](OC(C)=O)[C@H]1OC(C)=O [Auranofin, [3,4,5-triacetyloxy-6-(acetyloxymethyl)-oxane-2-thiolate-(triethylphosphine)gold(I)]] |  | not shown to cause metabolic stress strong enough to induce the autophagy |  | 3.78 ± 0.01 µM |  | 3.7 ± 0.7 µM | the only gold(I) complex able to inhibit the activity of pro-inflammatory transcription factor NF-κB |  | around 80% | 3.4 ± 0.9 µM |  | 3.4 ± 0.6 µM | the most effective gold(I) complex | more than 80% | 0.5 ± 1.1 µM | 3.4 ± 0.9 µM | 2 ± 0.1 µM | 2.1 ± 0.4 µM |
